Reference: patent US20100034772A1, “COMPOSITIONS AND METHODS FOR IMMUNOTHERAPY” (priority 2006, published 2010)
“Also recorded” adds a separate entry of the source.

How the values were obtained:
[1] = test system: NK cells / Ge-con target cells; test: 51Chromium release assay: lysis of Ge-con melanoma target cells by isolated NK cells; assay type: cell-based, human
Description: Human effector cells were obtained from the peripheral blood of healthy voluntary laboratory co-workers by density gradient centrifugation on Biocoll separating solution (Biochrom). NK cells were isolated from peripheral blood mononuclear cells (PBMC) by magnetic cell sorting (MACS) using a negative selection kit (NK cell isolation Kit II, 130-091-152; Miltenyi Biotec, Bergisch-Gladbach, Germany). The kit contains a cocktail of antibodies against CD3, CD4, CD14, CD15, CD19, CD36, CD123, and CD235a. […] NK cells enriched by MACS were cultured in 24-well plates for tissue culture (Sarstedt) at a density of 2×10^6 cells/ml. To some cultures 2 μg/ml recombinant HSP70, recombinant HSC70, or the HSP70-derived peptide TKD (Bachem, Bubendorf, Switzerland) were added.
Target cells were labeled by incubating 1×10^6 cells in 200 μl HEPES-buffered DMEM containing 100 μl FCS and 50 μCi Na2^51CrO4 (ICN Biomedicals, Eschwege, Germany) for 1 h at 37° C. and washed three times with HEPES-buffered DMEM. […] Spontaneous release was determined by incubation of target cells in the absence of effector cells. The micro titer plates were centrifuged for 5 min at 40×g and incubated at 37° C. for 4 h before being centrifuged again and supernatant and sediment were separately taken to determine radioactivity in each well using a Wallac MicroBeta Trilux counter (PerkinElmer Life Sciences, Köln, Germany).

[2] = test system: Ge-con and Ge-Hsp70 melanoma cells; test: 51Chromium release assay: lysis of SAHA-treated Ge-con and Ge-Hsp70 cells by LAK cells; assay type: cell-based, human; settings: target cells 10 μM SAHA 20 h; LAK: PBMC 4 days IL-2 100 U/ml; n=4; p=0.0030, three-way ANOVA; FIG. 9B
Description: (§1) The human melanoma cell line Ge, the Ge-Hsp70 and Ge-con sublines derived therefrom (clones Ge-Hsp70-A, Ge-Hsp70-C, Ge-TCR-C, and Ge-GFP-B) (15), mouse fibroblast L cells, and transfected L cells were maintained in NaHCO3-buffered DMEM supplemented with 10% FCS (Biochrom, Berlin, Germany), 2 mM L-glutamine, 1 mM sodium pyruvate, 50 μM 2-mercaptoethanol and antibiotics (100 U/ml penicillin, 100 μg/ml streptomycin) (Sigma) in Petri dishes for tissue culture (Sarstedt, Nümbrecht, Germany) at 37° C. in a 10% CO2 atmosphere. Human erythroleukemia K562 and mouse lymphoma YAC-1 cells were maintained under the same conditions in Petri dishes for suspension cells (Sarstedt). […] MICA mRNA expression was analyzed by Northern blot and cell surface expression by flow cytometry. […]
(§2) Target cells were labeled by incubating 1×10^6 cells in 200 μl HEPES-buffered DMEM containing 100 μl FCS and 50 μCi Na2^51CrO4 (ICN Biomedicals, Eschwege, Germany) for 1 h at 37° C. and washed three times with HEPES-buffered DMEM. […] Spontaneous release was determined by incubation of target cells in the absence of effector cells. […]

[3] = test system: Ge-con and Ge-Hsp70 melanoma cells; test: Flow cytometry of cell surface MICA/B, NKG2D ligands and HSP70 on Ge melanoma cells after histone deacetylase inhibitor; assay type: cell-based, human; settings: FIG. 9A; for HSP70 cell surface expression on Ge cells after histone deacetylase inhibitor treatment: SAHA 10 μM, 20 h, mAb RPN 1197; for MICA/B cell surface expression on Ge-con and Ge-Hsp70 cells: histone deacetylase inhibitor treatment (SAHA 10 μM, 20 h)
Description: (§3) The human melanoma cell line Ge, the Ge-Hsp70 and Ge-con sublines derived therefrom (clones Ge-Hsp70-A, Ge-Hsp70-C, Ge-TCR-C, and Ge-GFP-B) (15), mouse fibroblast L cells, and transfected L cells were maintained in NaHCO3-buffered DMEM supplemented with 10% FCS (Biochrom, Berlin, Germany), 2 mM L-glutamine, 1 mM sodium pyruvate, 50 μM 2-mercaptoethanol and antibiotics (100 U/ml penicillin, 100 μg/ml streptomycin) (Sigma) in Petri dishes for tissue culture (Sarstedt, Nümbrecht, Germany) at 37° C. in a 10% CO2 atmosphere. Human erythroleukemia K562 and mouse lymphoma YAC-1 cells were maintained under the same conditions in Petri dishes for suspension cells (Sarstedt). […] L cells were co-transfected by electroporation with 30 μg of the cosmid A158 (25) containing the MIC3 gene of the rhesus macaque (Macaca mulatta) which is orthologous to human MICA, and with 1 μg of the dsRED vector (Clontech, Mountain View, USA), which confers resistance to geneticin (Invitrogen, Karlsruhe, Germany). After selection with geniticin (1 mg/ml) stable clones were established by limiting dilution, tested for presence of the cosmid by PCR using specific primers (5′-GCT TGC ATT CCC TCC AGG A-3′ (SEQ ID NO: 1) and 5′-TGGACCCTCTGCAGCTGATGT-3′ (SEQ ID NO: 2), length of specific PCR product 1396 bp). MICA mRNA expression was analyzed by Northern blot and cell surface expression by flow cytometry. Four independent clones were tested as target cells for human and rhesus lymphokine-activated killer (LAK) cells with similar results, confirming that MICA expression confers susceptibility to LAK cells. Clone K43 (L-MICA) was selected for the further studies.
Flow cytometry was done on a FACScan flow cytometer (Becton Dickinson, Heidelberg, Germany) using CellQuest software. Expression of intracellular HSP70, T cell receptor (TCR) β, and green fluorescent protein (GFP) in Ge-Hsp70 and Ge-con clones, respectively, was controlled regularly by flow cytometry as described before (15). Cell surface expression of HSP70 was examined on propidium iodide negative cells by a monoclonal antibody (mAb) (RPN 1197, mouse IgG1, multimmune, Regensburg, Germany) that has been reported to detect HSP70 on the plasma membrane (28). MICA/B cell surface expression was determined with the mAb BAMO1 reacting with human MICA and MICB (mouse IgG1, Immatics, Tübingen, Germany). […] Intracellular granzyme B expression was analyzed with the mAb B18.1 (mouse IgG1, Alexis Biochemicals, Grünberg, Germany) after permeabilization of the cells with 0.25% saponin as described before for HSP70 (15). […] The percentage of NK cells in the spleens of SCID mice was determined using the pan-NK cell marker DX5 (rat IgM, PE-conjugated, Caltag Laboratories, Hamburg, Germany). […]

[4] = test system: PBMC; test: 51Chromium release assay: lysis of L-MICA / L / K562 target cells by human PBMC or LAK cells stimulated in vitro; assay type: cell-based; settings: for lysis of L-MICA cells by IL-2 treated PBMC, additional stimulatory effect of recombinant protein: PBMC cultured 7 days with IL-2 (100 U/ml) plus 2 μg/ml protein, compared with IL-2 only, FIG. 7A
Description: as §3
(§4) Splenocytes from SCID mice were obtained using a Tenbroeck homogeniser and erythrocytes were removed by incubation for 5 min in lysis buffer (155 mM NH4Cl, 10 mM KHCO3, 0.1 mM EDTA, pH 7.4-7.8). Afterwards the cells were used either directly as cytotoxic effector cells or cultured for 24 h in DMEM with 10% FCS and 20% supematant from concanavalin A stimulated lymphocytes before being used in ^51Chromium release assays. Human effector cells were obtained from the peripheral blood of healthy voluntary laboratory co-workers by density gradient centrifugation on Biocoll separating solution (Biochrom). NK cells were isolated from peripheral blood mononuclear cells (PBMC) by magnetic cell sorting (MACS) using a negative selection kit (NK cell isolation Kit II, 130-091-152; Miltenyi Biotec, Bergisch-Gladbach, Germany). […]
as §2

[5] = test system: NK cells; test: 51Chromium release assay: lysis of L-MICA target cells by MACS-isolated NK cells or NK cell depleted PBMC; assay type: cell-based, human
Description: as §1, §2

[6] = test system: NK cells; test: Flow cytometry of NK cell markers and intracellular granzyme B after 5 d culture; assay type: cell-based, human; settings: IL-2 100 U/ml, TKD 2 μg/ml
Description: as §4, with “Germany). The kit contains a cocktail of antibodies against CD3, CD4, CD14, CD15, CD19, CD36, CD123, and CD235a. To obtain LAK cells the PBMC were cultured for 4 to 7 days in 5-ml Petri dishes for tissue culture (Sarstedt) at a density of 5 to 10×10^6 cells/ml in DMEM supplemented with 100 U/ml IL-2 (Proleukin, Chiron, Amsterdam, Netherlands). NK cells enriched by MACS were cultured in 24-well plates for tissue culture (Sarstedt) at a density of 2×10^6 cells/ml. To some cultures 2 μg/ml recombinant HSP70, recombinant HSC70, or the HSP70-derived peptide TKD (Bachem, Bubendorf, Switzerland) were added.” for “Germany).”
Flow cytometry was done on a FACScan flow cytometer (Becton Dickinson, Heidelberg, Germany) using CellQuest software. […] MICA/B cell surface expression was determined with the mAb BAMO1 reacting with human MICA and MICB (mouse IgG1, Immatics, Tübingen, Germany). […] Intracellular granzyme B expression was analyzed with the mAb B18.1 (mouse IgG1, Alexis Biochemicals, Grünberg, Germany) after permeabilization of the cells with 0.25% saponin as described before for HSP70 (15). […] The percentage of NK cells in the spleens of SCID mice was determined using the pan-NK cell marker DX5 (rat IgM, PE-conjugated, Caltag Laboratories, Hamburg, Germany). […]

[7] = test system: NK cells; settings: shown before (27); cited from earlier work

For `O=C(CCCCCCC(=O)Nc1ccccc1)NO` [SAHA, suberoylanilide hydroxyamic acid], the “susceptibility of Ge target cells to NK cells after SAHA treatment” value ([1]; target cells 10 μM SAHA 20 h, p<0.0001, three-way ANOVA, effector:target 2.5:1 and 1.25:1) was “augmented their susceptibility to NK cells”, the “susceptibility of treated Ge-con and Ge-Hsp70 cells to lysis by LAK cells versus untreated cells” value [2] was “significantly more susceptible to lysis by LAK cells than untreated cells; also recorded: lysed signifcantly better than untreated cells” and the “HSP70 cell surface expression on Ge cells after histone deacetylase inhibitor treatment” value [3] was “not found”. The “MICA/B cell surface expression on Ge-con and Ge-Hsp70 cells” value [3] was “induced”.
With `CC(/C=C/C(=O)NO)=C\[C@@H](C)C(=O)c1ccc(N(C)C)cc1` [trichostatin A] the “HSP70 cell surface expression on Ge cells after histone deacetylase inhibitor treatment” value [3] was “not found” and the “MICA/B cell surface expression on Ge-con and Ge-Hsp70 cells” value [3] was “induced”.
In the case of “HSC70: His-tagged recombinant constitutively expressed HSC70 from the rat Hsc70 gene, produced in E. coli”, the “lysis of L-MICA cells by IL-2 treated PBMC, additional stimulatory effect of recombinant protein” value [4] was “but not HSC70 was able to further activate PBMC to kill MICA expressing target cells”.
For “HSP70: His-tagged recombinant stress-inducible HSP70 protein derived from the rat Hsp70-1 gene, produced in E. coli”, the “capacity of LAK cells to kill L-MICA cells” value ([4]; 7 days IL-2 (100 U/ml) plus HSP70 (2 μg/ml), tested in parallel with LPS (10 ng/ml), 6 experiments, p=0.0374, FIG. 7B) was “significantly increased” and the “lysis of L-MICA cells by IL-2 treated PBMC, additional stimulatory effect of recombinant protein” value [4] was “further increased lysis of the L-MICA cells”.
In the case of TKDNNLLGRFELSG, the “killing of L-MICA cells by stimulated NK cell depleted PBMC” value ([5]; NK cell depleted PBMC, 5 days IL-2 (100 U/ml) or IL-2 plus TKD (2 μg/ml), effector:target ratios up to 200:1, FIG. 8B) was “did not result in a cell population that was able to kill L-MICA cells”, the “activity of the NK cells against L-MICA cells” value ([5]; NK cell enriched fraction, 5 days IL-2 (100 U/ml) plus TKD (2 μg/ml) versus IL-2, 7 experiments, p<0.0001, FIG. 8C) was “significantly improve” and the “mean fluorescence intensity of NKG2D and CD94, IL-2 and TKD versus IL-2 alone” value [6] was “no significant difference was detectable”. For the same molecule, the “intracellular granzyme B expression, IL-2 plus TKD versus IL-2 alone” value ([6]; 5 experiments, FIG. 10D) was “tendency towards increased expression”, the “percentage of CD56 positive NK cells, IL-2 plus TKD versus IL-2” value ([6]; FIG. 10C) was “no difference was observed” and the “capability of NK cells to lyse Ge-con target cells after stimulation” value ([1]; NK cells 5 days IL-2 (100 U/ml) plus TKD (2 μg/ml) versus IL-2, TKD p=0.0055, three-way ANOVA, effector:target 2.5:1 and 1.25:1) was “increased their capability to lyse target cells”. The “killing of Ge-con target cells: combination of TKD treatment of NK cells and SAHA treatment of target cells” value ([1]; TKD 2 μg/ml plus IL-2 5 days, SAHA 10 μM 20 h, interaction p=0.0003, especially at lower effector:target ratios, FIG. 10B) was “acted synergistically”, the “lysis of L-MICA cells by PBMC stimulated with IL-2 and TKD versus IL-2 only” value ([4]; 7 days, IL-2 100 U/ml, TKD 2 μg/ml, p=0.0012, FIG. 7C) was “lysed L-MICA cells significantly better” and the “ability to stimulate NK cells to lyse HSP70 cell surface positive target cells” value [7] was “equivalent to the full length HSP70”.
